According to the kinase profiling compilation of Christmann-Franck et al. (2016):
Values joined by “and” are separate entries in the source; they are usually repeats but may differ in a detail not shown here. Equal entries are not always repeated. One block for each compound: values may come before it.

Assays:
Experiment in all cases: KINOMEscan competition binding
Settings in all cases: compound 10.0 µM
[1] = tested on: EGFR (human), P00533 [L861Q]
[2] = biological target: FRK (human) (UniProt P42685)
[3] = biological target: AKT1 (human) (UniProt P31749)
[4] = tested on: RET (human), P07949 [V804M]
[5] = biological target: SIK2 (human) (UniProt Q9H0K1)
[6] = biological target: CSF1R (human) (UniProt P07333)
[7] = biological target: PRKD2 (human) (UniProt Q9BZL6)
[8] = biological target: MERTK (human) (UniProt Q12866)
[9] = biological target: EIF2AK2 (human) (UniProt P19525)
[10] = biological target: KDR (human) (UniProt P35968)
[11] = biological target: MAPKAPK5 (human) (UniProt Q8IW41)
[12] = biological target: JAK2 JH1 catalytic (human) (UniProt O60674)
[13] = biological target: SRC (human) (UniProt P12931)
[14] = tested on: ABL1 (human), P00519 [Y253F]
[15] = biological target: MST1R (human) (UniProt Q04912)
[16] = biological target: CAMK2D (human) (UniProt Q13557)
[17] = biological target: MAP4K5 (human) (UniProt Q9Y4K4)
[18] = tested on: EGFR (human), P00533 [752-759 del]
[19] = biological target: STK3 (human) (UniProt Q13188)
[20] = biological target: CDC42BPG (human) (UniProt Q6DT37)
[21] = biological target: FGFR3 (human) (UniProt P22607)
[22] = biological target: NUAK2 (human) (UniProt Q9H093)
[23] = biological target: PKN2 (human) (UniProt Q16513)
[24] = biological target: CDK9 (human) (UniProt P50750)
[25] = biological target: CDK5 (human) (UniProt Q00535)
[26] = biological target: RAF1 (human) (UniProt P04049)
[27] = biological target: PIK3C2B (human) (UniProt O00750)
[28] = biological target: MAPK13 (human) (UniProt O15264)
[29] = biological target: GSK3B (human) (UniProt P49841)
[30] = biological target: EPHB1 (human) (UniProt P54762)
[31] = biological target: DDR2 (human) (UniProt Q16832)
[32] = biological target: CDK18 (human) (UniProt Q07002)
[33] = biological target: MAP2K1 (human) (UniProt Q02750)
[34] = biological target: MARK2 (human) (UniProt Q7KZI7)
[35] = biological target: ULK1 (human) (UniProt O75385)
[36] = tested on: EGFR (human), P00533 [L858R]
[37] = biological target: MAPK4 (human) (UniProt P31152)
[38] = biological target: STK32B (human) (UniProt Q9NY57)
[39] = biological target: CAMK2B (human) (UniProt Q13554)
[40] = biological target: TIE1 (human) (UniProt P35590)
[41] = biological target: EGFR (human) (UniProt P00533)
[42] = biological target: PRKAA2 (human) (UniProt P54646)

Chain of EIF2AK2 (human) (P19525 whole entry, looked up): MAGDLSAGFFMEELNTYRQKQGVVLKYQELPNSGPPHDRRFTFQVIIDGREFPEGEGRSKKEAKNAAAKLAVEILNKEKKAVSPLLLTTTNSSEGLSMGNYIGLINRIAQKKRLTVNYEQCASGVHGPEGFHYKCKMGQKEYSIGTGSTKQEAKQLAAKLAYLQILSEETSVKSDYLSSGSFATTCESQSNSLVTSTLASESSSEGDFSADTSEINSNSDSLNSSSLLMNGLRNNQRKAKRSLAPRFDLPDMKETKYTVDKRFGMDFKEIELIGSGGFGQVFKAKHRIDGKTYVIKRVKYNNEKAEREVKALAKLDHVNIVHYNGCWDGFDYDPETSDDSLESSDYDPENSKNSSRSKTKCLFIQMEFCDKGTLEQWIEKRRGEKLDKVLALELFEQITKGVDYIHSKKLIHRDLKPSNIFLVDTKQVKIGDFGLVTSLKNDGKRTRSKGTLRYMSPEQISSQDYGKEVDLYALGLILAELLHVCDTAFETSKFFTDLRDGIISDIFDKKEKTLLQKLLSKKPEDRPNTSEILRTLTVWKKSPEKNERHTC
Chain of EPHB1 (human) (P54762 whole entry, looked up): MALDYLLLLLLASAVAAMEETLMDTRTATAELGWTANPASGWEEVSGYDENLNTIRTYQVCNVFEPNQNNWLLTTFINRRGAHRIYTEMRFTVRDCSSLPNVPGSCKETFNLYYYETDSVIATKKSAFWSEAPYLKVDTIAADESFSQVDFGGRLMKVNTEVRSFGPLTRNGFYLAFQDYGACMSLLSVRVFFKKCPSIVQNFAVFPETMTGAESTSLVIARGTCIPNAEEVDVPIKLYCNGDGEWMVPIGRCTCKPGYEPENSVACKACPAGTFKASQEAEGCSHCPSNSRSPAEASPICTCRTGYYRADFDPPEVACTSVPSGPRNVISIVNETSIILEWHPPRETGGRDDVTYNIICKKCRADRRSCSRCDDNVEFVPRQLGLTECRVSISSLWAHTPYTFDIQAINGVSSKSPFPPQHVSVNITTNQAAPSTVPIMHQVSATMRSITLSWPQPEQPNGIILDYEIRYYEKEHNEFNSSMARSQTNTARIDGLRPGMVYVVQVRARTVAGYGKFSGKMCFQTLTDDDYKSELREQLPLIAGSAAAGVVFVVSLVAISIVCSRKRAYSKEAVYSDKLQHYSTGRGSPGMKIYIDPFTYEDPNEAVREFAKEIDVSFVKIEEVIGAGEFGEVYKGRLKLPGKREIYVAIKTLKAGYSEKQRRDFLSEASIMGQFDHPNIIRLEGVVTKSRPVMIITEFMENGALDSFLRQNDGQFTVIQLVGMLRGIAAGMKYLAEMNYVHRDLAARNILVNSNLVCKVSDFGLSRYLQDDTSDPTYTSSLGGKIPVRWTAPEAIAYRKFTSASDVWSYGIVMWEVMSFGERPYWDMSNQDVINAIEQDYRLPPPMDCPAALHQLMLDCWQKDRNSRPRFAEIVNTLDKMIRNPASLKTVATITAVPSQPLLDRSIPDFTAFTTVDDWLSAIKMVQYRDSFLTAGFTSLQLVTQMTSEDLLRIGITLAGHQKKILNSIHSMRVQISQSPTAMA
Chain of MST1R (human) (Q04912 whole entry, looked up): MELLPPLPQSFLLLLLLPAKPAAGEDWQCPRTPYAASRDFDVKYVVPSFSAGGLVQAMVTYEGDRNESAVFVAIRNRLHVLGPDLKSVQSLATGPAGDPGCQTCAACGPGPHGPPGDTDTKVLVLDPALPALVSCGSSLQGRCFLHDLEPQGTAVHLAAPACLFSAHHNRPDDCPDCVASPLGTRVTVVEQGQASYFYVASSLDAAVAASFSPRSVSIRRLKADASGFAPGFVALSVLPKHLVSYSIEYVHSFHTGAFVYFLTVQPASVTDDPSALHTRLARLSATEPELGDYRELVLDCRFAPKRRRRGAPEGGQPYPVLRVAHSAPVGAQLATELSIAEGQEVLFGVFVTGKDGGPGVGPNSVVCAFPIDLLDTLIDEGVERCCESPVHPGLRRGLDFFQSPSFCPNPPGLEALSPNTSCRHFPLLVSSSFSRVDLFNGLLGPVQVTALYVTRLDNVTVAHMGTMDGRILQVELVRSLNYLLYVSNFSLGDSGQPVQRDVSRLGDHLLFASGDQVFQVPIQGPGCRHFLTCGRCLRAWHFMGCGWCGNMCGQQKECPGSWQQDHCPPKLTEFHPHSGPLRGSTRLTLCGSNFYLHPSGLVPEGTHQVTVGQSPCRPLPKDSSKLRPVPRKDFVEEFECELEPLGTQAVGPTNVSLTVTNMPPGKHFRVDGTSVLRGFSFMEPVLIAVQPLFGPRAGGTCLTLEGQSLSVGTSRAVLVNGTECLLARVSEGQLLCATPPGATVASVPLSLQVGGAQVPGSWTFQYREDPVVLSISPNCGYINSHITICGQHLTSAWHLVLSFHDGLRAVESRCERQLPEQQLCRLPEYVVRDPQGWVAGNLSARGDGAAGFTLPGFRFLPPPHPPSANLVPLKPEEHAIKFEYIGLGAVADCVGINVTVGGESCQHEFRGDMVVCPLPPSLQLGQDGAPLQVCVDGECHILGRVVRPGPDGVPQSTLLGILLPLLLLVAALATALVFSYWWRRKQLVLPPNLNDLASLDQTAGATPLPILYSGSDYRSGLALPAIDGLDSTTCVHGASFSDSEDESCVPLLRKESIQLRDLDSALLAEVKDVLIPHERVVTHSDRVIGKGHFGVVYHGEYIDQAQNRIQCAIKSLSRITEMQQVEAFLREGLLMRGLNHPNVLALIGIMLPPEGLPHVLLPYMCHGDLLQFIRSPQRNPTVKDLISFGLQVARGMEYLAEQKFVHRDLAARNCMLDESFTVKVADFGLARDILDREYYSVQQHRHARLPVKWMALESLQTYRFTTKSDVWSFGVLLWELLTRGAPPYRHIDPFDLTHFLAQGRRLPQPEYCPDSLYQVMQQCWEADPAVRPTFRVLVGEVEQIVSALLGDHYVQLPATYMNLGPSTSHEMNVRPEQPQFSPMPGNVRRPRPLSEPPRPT
Chain of CDC42BPG (human) (Q6DT37 whole entry, looked up): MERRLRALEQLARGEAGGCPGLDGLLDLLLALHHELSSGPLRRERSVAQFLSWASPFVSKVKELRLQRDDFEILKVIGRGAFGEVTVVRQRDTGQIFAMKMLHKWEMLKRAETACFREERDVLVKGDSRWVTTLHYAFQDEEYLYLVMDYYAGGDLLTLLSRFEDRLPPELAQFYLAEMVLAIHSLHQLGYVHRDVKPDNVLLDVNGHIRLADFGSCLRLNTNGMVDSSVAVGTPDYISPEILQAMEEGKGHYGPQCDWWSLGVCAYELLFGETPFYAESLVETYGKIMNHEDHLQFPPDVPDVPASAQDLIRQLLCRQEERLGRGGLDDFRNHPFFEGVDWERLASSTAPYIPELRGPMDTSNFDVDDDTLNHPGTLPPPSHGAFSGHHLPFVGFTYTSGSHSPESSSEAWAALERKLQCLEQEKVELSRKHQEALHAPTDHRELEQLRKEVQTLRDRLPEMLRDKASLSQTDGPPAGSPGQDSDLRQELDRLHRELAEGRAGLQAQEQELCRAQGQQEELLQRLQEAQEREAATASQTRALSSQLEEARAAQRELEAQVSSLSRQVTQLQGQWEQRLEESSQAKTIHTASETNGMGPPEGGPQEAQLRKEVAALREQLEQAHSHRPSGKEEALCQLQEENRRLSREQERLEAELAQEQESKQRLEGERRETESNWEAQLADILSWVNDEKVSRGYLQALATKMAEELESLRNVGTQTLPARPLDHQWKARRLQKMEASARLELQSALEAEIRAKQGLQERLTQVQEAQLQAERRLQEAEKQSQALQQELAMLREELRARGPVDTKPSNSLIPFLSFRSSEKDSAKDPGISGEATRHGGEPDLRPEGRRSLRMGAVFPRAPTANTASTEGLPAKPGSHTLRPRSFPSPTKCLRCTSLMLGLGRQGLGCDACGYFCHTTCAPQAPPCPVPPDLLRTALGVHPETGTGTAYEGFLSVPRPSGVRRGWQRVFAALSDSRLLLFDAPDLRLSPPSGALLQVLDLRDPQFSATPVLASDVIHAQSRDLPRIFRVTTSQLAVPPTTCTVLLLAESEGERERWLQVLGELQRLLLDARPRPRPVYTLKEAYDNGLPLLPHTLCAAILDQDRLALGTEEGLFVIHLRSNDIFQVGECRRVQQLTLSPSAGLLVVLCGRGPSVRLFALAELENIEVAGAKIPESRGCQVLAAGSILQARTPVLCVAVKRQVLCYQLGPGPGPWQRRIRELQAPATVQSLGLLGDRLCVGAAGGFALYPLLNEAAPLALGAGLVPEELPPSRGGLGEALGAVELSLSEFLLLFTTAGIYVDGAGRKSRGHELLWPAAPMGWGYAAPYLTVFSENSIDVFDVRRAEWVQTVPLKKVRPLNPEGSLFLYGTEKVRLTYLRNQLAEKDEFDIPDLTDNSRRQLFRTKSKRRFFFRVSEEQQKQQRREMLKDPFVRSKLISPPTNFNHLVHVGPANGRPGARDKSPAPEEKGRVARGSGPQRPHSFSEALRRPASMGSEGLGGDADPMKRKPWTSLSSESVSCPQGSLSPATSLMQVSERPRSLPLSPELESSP
Chain of NUAK2 (human) (Q9H093 whole entry, looked up): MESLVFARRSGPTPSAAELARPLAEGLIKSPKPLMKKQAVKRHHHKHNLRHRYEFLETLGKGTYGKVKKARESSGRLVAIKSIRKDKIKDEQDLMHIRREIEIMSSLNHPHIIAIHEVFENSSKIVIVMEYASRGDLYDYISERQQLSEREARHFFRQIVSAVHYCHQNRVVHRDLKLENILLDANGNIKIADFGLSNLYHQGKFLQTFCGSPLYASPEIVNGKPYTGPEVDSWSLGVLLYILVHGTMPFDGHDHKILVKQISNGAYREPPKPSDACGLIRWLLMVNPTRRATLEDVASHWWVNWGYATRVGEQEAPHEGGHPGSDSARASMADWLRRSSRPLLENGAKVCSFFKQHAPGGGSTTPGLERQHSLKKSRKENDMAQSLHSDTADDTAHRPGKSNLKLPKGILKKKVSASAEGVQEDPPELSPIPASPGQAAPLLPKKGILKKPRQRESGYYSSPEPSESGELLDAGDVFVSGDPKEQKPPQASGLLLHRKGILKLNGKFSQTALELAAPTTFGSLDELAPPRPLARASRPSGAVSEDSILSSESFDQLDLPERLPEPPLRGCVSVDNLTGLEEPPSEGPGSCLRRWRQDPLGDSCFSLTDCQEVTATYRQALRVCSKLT

kinase still bound, per cent of control [1]: 46%
kinase still bound, per cent of control [2]: 13%
kinase still bound, per cent of control [3]: 100%
kinase still bound, per cent of control [4]: 88%
kinase still bound, per cent of control [5]: 87%
kinase still bound, per cent of control [6]: 54%
kinase still bound, per cent of control [7]: 9.2%
kinase still bound, per cent of control [8]: 100%
kinase still bound, per cent of control [9]: 69%
kinase still bound, per cent of control [10]: 90%
kinase still bound, per cent of control [11]: 69%
kinase still bound, per cent of control [12]: 34%
kinase still bound, per cent of control [13]: 97%
kinase still bound, per cent of control [14]: 99%
kinase still bound, per cent of control [15]: 76%
kinase still bound, per cent of control [16]: 59%
kinase still bound, per cent of control [17]: 99%
kinase still bound, per cent of control [18]: 78%
kinase still bound, per cent of control [19]: 69%
kinase still bound, per cent of control [20]: 91%
kinase still bound, per cent of control [21]: 100%
kinase still bound, per cent of control [22]: 8%
kinase still bound, per cent of control [23]: 90%
kinase still bound, per cent of control [24]: 76%
kinase still bound, per cent of control [25]: 74%
kinase still bound, per cent of control [26]: 94%
kinase still bound, per cent of control [27]: 85%
kinase still bound, per cent of control [28]: 71%
kinase still bound, per cent of control [29]: 97%
kinase still bound, per cent of control [30]: 88%
kinase still bound, per cent of control [31]: 91%
kinase still bound, per cent of control [32]: 76%
kinase still bound, per cent of control [33]: 90%
kinase still bound, per cent of control [34]: 100%
kinase still bound, per cent of control [35]: 6.5%
kinase still bound, per cent of control [36]: 63%
kinase still bound, per cent of control [37]: 66%
kinase still bound, per cent of control [38]: 100%
kinase still bound, per cent of control [39]: 58%
kinase still bound, per cent of control [40]: 93%
kinase still bound, per cent of control [41]: 80% and 87%
kinase still bound, per cent of control [42]: 94%
SMILES: COc1cc(N2CCN(C)CC2)ccc1Nc1ncc2c(n1)N(C)c1sccc1C(=O)N2C

kinase still bound, per cent of control [1]: 84%
kinase still bound, per cent of control [2]: 100%
kinase still bound, per cent of control [3]: 100%
kinase still bound, per cent of control [4]: 100%
kinase still bound, per cent of control [5]: 89%
kinase still bound, per cent of control [6]: 89%
kinase still bound, per cent of control [7]: 100%
kinase still bound, per cent of control [8]: 82%
kinase still bound, per cent of control [9]: 91%
kinase still bound, per cent of control [10]: 88%
kinase still bound, per cent of control [11]: 100%
kinase still bound, per cent of control [12]: 42%
kinase still bound, per cent of control [13]: 100%
kinase still bound, per cent of control [14]: 100%
kinase still bound, per cent of control [15]: 100%
kinase still bound, per cent of control [16]: 100%
kinase still bound, per cent of control [17]: 100%
kinase still bound, per cent of control [18]: 100%
kinase still bound, per cent of control [19]: 87%
kinase still bound, per cent of control [20]: 100%
kinase still bound, per cent of control [21]: 100%
kinase still bound, per cent of control [22]: 70%
kinase still bound, per cent of control [23]: 70%
kinase still bound, per cent of control [24]: 100%
kinase still bound, per cent of control [25]: 100%
kinase still bound, per cent of control [26]: 100%
kinase still bound, per cent of control [27]: 97%
kinase still bound, per cent of control [28]: 90%
kinase still bound, per cent of control [29]: 94%
kinase still bound, per cent of control [30]: 100%
kinase still bound, per cent of control [31]: 98%
kinase still bound, per cent of control [32]: 100%
kinase still bound, per cent of control [33]: 100%
kinase still bound, per cent of control [34]: 100%
kinase still bound, per cent of control [35]: 85%
kinase still bound, per cent of control [36]: 100%
kinase still bound, per cent of control [37]: 88%
kinase still bound, per cent of control [38]: 100%
kinase still bound, per cent of control [39]: 100%
kinase still bound, per cent of control [40]: 100%
kinase still bound, per cent of control [41]: 100%
kinase still bound, per cent of control [42]: 96%
SMILES: CN1C(=O)c2ccccc2N(C)c2nc(NS(=O)(=O)c3ccc(N)cc3)ncc21

kinase still bound, per cent of control [1]: 69%
kinase still bound, per cent of control [2]: 90%
kinase still bound, per cent of control [3]: 100%
kinase still bound, per cent of control [4]: 88%
kinase still bound, per cent of control [5]: 76%
kinase still bound, per cent of control [6]: 69%
kinase still bound, per cent of control [7]: 8.3%
kinase still bound, per cent of control [8]: 83%
kinase still bound, per cent of control [9]: 38%
kinase still bound, per cent of control [10]: 100%
kinase still bound, per cent of control [11]: 84%
kinase still bound, per cent of control [12]: 14%
kinase still bound, per cent of control [13]: 100%
kinase still bound, per cent of control [14]: 95%
kinase still bound, per cent of control [15]: 93%
kinase still bound, per cent of control [16]: 59%
kinase still bound, per cent of control [17]: 52%
kinase still bound, per cent of control [18]: 95%
kinase still bound, per cent of control [19]: 90%
kinase still bound, per cent of control [20]: 88%
kinase still bound, per cent of control [21]: 84%
kinase still bound, per cent of control [22]: 37%
kinase still bound, per cent of control [23]: 41%
kinase still bound, per cent of control [24]: 100%
kinase still bound, per cent of control [25]: 100%
kinase still bound, per cent of control [26]: 94%
kinase still bound, per cent of control [27]: 90%
kinase still bound, per cent of control [28]: 100%
kinase still bound, per cent of control [29]: 53%
kinase still bound, per cent of control [30]: 95%
kinase still bound, per cent of control [31]: 100%
kinase still bound, per cent of control [32]: 82%
kinase still bound, per cent of control [33]: 55%
kinase still bound, per cent of control [34]: 60%
kinase still bound, per cent of control [35]: 21%
kinase still bound, per cent of control [36]: 49%
kinase still bound, per cent of control [37]: 100%
kinase still bound, per cent of control [38]: 100%
kinase still bound, per cent of control [39]: 47%
kinase still bound, per cent of control [40]: 64%
kinase still bound, per cent of control [41]: 73% and 89%
kinase still bound, per cent of control [42]: 100%
SMILES: O=C1NC(=O)/C(=C/c2c[nH]c(=O)c(-c3ccc(N4CCNCC4)nc3)c2)S1
